Measurements taken from PMC7827406, “Structure–Activity Relationship (SAR) Study of Spautin-1 to Entail the Discovery of Novel NEK4 Inhibitors” (International Journal of Molecular Sciences, 2021).
Like-named read-outs stand apart in the source and are kept apart here.

Assays:
Assay in all cases: biochemical
Set-up in all cases: Eurofins KinaseProfiler full panel at Km ATP, residual kinase activity (%) relative to DMSO
MOK(h) = target: T1, MOK(h) (Homo sapiens, UniProt Q9UQ07)
T1 sequence (Q9UQ07 1-419): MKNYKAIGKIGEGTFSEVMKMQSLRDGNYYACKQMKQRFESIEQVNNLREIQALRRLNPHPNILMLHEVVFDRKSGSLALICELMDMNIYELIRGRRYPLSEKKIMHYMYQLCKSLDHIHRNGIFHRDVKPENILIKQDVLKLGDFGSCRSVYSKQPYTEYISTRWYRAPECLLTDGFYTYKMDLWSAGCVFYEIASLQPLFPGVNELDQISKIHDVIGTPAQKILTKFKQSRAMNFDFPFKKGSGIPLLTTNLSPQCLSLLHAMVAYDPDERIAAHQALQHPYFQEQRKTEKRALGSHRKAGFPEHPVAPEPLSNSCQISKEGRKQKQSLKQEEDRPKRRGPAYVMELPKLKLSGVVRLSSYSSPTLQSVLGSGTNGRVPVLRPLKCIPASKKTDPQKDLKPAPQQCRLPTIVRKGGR
Summary of the method: (§1)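 Compounds screened at 10 µM in radiometric kinase activity assays at Km ATP, reported as remaining kinase activity (%). A KINOMEscan competition-binding screen at 10 µM measured DNA-tagged kinase retained on immobilized active-site ligand by qPCR.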

IR(h) = target: T2, IR(h) (Homo sapiens, UniProt P06213)
T2 construct: gene INSR
T2 sequence (P06213 whole entry): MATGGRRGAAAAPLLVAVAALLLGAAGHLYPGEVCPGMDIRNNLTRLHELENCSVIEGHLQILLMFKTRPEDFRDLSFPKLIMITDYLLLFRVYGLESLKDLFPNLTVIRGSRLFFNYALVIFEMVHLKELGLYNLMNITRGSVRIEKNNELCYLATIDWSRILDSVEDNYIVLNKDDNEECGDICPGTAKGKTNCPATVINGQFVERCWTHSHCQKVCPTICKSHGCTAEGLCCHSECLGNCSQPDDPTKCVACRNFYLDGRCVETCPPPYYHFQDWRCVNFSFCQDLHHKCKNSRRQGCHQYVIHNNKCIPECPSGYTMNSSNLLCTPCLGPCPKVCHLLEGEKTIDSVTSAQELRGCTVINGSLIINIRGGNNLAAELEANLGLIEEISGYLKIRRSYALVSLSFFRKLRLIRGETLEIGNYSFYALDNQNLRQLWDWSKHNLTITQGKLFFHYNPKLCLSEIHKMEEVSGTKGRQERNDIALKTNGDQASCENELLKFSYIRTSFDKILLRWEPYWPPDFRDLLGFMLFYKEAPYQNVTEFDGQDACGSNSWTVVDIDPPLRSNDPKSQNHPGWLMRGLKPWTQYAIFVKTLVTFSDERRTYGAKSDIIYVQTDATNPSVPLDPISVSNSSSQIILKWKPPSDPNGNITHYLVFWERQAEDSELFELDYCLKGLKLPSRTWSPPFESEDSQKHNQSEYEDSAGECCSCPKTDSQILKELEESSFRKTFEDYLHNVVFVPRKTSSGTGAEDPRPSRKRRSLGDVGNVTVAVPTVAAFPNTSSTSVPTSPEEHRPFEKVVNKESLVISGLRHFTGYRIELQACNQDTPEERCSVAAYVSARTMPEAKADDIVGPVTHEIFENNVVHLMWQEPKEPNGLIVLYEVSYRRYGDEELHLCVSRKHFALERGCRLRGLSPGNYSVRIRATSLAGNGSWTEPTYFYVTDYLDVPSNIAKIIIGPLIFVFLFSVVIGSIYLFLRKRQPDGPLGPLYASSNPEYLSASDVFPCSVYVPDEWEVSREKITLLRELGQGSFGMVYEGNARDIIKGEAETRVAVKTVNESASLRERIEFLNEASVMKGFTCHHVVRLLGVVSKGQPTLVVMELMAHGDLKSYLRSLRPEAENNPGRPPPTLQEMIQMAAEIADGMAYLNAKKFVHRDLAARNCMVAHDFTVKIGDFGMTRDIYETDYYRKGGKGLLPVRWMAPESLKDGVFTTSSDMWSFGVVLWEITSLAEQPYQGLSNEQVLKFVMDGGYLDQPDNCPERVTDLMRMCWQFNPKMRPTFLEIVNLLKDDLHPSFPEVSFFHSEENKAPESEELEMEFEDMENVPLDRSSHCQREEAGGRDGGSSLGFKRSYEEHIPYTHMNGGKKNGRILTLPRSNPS
Summary of the method: as §1

Fer(h) = Fer(h) (Homo sapiens, UniProt P16591)
Summary of the method: as §1

cKit(D816H)(h) = target: T3, cKit(D816H)(h) (Homo sapiens, UniProt P10721, D816H)
T3 construct: gene KIT
Summary of the method: as §1

Hck(h) activated = Hck(h) activated (Homo sapiens, UniProt P08631)
Summary of the method: as §1

mTOR/FKBP12(h) = mTOR/FKBP12(h) (Homo sapiens, UniProt P42345)
Summary of the method: as §1

TAK1(h) = target: T4, TAK1(h) (Homo sapiens, UniProt O43318)
T4 construct: gene MAP3K7
T4 sequence (O43318 1-606): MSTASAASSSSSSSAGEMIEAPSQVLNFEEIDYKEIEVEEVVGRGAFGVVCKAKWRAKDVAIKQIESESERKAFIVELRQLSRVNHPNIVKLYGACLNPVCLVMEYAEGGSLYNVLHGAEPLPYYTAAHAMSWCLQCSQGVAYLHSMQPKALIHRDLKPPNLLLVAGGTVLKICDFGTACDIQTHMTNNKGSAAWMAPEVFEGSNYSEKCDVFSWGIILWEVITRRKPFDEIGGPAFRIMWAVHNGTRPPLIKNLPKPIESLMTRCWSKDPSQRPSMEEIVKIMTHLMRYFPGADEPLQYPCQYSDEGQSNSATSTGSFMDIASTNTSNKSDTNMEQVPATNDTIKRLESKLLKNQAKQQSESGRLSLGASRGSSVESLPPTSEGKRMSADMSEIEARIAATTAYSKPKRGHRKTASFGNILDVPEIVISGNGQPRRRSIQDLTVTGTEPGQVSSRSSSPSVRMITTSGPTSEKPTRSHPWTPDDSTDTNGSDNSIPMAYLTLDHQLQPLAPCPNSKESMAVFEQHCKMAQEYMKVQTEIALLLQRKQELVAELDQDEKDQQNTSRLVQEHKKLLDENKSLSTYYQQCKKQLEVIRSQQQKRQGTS
Summary of the method: as §1

IRAK1(h) = IRAK1(h) (Homo sapiens, UniProt P51617)
Sequence of IRAK1(h) (P51617 whole entry): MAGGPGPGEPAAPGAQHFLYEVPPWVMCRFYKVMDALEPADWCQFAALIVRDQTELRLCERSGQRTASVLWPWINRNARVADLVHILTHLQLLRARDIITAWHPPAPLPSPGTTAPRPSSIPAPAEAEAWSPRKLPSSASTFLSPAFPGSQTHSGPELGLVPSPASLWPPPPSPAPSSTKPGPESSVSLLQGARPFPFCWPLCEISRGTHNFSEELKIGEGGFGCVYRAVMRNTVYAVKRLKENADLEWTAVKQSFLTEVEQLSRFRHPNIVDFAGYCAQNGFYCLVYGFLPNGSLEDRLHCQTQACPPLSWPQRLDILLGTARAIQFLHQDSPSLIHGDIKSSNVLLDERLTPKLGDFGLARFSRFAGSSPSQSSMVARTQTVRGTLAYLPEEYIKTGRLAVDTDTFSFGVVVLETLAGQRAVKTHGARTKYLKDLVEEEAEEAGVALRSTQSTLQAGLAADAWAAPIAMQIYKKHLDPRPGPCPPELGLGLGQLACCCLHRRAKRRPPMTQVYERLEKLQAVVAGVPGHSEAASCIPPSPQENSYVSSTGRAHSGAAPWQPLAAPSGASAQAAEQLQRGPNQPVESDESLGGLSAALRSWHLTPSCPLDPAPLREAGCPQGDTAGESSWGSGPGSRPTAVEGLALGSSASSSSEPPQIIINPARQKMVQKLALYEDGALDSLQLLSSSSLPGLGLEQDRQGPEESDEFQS
Summary of the method: as §1

CLK3(h) = CLK3(h) (Homo sapiens, UniProt P49761)
Summary of the method: as §1

[1] = target: T5, PI3 Kinase (p110a(E545K)/p85a)(h) (Homo sapiens, UniProt P42336, E545K)
T5 construct: gene PIK3CA
T5 sequence (P42336 whole entry E545K): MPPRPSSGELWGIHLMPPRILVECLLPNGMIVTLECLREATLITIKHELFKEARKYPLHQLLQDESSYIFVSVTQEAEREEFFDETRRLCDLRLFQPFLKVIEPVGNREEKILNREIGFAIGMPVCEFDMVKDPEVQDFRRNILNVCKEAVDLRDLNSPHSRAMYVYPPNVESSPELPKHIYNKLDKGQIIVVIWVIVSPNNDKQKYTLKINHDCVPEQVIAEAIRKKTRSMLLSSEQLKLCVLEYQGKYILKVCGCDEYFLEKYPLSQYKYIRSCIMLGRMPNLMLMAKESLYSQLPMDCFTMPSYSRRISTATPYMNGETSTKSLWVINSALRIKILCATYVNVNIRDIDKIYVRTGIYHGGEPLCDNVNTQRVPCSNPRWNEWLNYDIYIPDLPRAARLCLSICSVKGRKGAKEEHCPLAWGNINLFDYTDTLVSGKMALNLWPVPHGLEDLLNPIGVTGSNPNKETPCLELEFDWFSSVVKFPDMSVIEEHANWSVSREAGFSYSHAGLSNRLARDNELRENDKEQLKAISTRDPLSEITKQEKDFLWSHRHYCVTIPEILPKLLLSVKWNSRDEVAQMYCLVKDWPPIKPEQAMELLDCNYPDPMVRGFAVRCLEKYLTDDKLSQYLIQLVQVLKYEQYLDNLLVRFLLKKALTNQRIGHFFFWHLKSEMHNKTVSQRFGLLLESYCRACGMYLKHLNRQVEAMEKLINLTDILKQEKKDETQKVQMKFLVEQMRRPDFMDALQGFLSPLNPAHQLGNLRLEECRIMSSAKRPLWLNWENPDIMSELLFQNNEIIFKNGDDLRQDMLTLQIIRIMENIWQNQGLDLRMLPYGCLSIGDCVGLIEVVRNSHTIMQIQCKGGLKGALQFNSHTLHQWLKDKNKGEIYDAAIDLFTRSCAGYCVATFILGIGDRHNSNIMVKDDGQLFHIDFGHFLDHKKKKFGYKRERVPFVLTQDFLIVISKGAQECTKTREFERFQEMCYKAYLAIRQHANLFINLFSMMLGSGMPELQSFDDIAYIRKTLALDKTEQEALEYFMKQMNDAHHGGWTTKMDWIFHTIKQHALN
T5 sequence (P27986 whole entry partner): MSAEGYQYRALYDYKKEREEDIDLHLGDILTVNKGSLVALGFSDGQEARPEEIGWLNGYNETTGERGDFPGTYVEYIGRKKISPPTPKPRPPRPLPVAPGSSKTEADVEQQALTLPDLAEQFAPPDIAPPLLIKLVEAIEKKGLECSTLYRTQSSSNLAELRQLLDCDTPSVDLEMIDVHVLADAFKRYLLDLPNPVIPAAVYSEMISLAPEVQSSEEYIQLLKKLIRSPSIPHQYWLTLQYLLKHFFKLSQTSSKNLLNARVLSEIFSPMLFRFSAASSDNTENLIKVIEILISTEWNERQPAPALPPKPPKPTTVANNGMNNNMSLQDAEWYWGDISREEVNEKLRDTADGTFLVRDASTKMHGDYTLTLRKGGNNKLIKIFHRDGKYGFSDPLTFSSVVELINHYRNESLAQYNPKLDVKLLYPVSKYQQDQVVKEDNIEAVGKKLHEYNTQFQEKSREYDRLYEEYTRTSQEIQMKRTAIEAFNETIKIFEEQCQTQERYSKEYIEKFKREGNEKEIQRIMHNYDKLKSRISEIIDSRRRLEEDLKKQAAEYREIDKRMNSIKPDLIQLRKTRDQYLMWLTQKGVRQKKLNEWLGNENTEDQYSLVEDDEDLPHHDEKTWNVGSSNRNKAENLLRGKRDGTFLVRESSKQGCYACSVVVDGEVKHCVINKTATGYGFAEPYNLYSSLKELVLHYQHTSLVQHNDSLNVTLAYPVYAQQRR
Summary of the method: as §1

Plk1(h) = Plk1(h) (Homo sapiens, UniProt P53350)
Sequence of Plk1(h) (P53350 whole entry): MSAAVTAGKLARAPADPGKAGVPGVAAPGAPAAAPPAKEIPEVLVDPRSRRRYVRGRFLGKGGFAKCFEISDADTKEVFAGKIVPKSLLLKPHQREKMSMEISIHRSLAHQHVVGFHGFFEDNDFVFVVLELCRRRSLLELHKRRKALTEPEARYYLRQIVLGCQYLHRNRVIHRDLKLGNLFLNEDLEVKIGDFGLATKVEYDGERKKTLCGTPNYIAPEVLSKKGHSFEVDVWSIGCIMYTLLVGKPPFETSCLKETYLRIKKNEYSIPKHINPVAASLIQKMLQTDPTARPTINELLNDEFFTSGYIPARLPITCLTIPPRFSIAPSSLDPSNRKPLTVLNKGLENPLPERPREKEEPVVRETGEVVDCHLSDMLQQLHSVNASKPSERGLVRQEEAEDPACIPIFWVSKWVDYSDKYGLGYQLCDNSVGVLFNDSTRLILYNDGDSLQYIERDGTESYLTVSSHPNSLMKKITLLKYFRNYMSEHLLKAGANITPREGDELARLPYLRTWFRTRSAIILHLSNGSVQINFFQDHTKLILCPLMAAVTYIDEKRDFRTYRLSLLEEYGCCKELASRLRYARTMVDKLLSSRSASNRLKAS
Summary of the method: as §1

PKBβ(h) = target: T6, PKBβ(h) (Homo sapiens, UniProt P31751)
T6 construct: gene AKT2
T6 sequence (P31751 whole entry): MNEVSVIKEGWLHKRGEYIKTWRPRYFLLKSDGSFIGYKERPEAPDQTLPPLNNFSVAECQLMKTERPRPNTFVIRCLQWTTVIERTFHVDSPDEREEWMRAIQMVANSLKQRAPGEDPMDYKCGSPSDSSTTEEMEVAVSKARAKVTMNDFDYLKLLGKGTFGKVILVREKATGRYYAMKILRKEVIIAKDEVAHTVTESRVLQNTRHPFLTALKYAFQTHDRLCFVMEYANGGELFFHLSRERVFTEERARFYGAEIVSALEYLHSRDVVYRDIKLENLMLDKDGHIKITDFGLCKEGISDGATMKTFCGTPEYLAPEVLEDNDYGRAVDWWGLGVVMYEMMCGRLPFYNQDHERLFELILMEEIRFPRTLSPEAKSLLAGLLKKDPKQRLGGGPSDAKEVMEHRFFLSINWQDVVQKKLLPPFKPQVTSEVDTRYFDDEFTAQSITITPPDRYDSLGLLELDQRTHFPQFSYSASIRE
Summary of the method: as §1

[2] = read-out: Residual activity (%) Spautin-1 5aa
[3] = read-out: Residual activity (%) 5as
[4] = read-out: Residual activity (%) 5at
[5] = read-out: Residual activity (%) 5ay

Fc1ccc(CNc2ncnc3ccc(F)cc23)cc1 [5aa, 6-Fluoro-N-(4-fluorobenzyl)-4-Quinazolinamine]
remaining activity at 10 µM (MOK(h); [2]): 89% | remaining activity at 10 µM (IR(h); [2]): 73% | remaining activity at 10 µM (Fer(h); [2]): 76% | remaining activity at 10 µM (cKit(D816H)(h); [2]): 115% | remaining activity at 10 µM (Hck(h) activated; [2]): 85% | remaining activity at 10 µM (mTOR/FKBP12(h); [2]): 100% | remaining activity at 10 µM (TAK1(h); [2]): 74% | remaining activity at 10 µM (IRAK1(h); [2]): 114% | remaining activity at 10 µM (CLK3(h); [2]): 88% | remaining activity at 10 µM [1, 2]: 96% | remaining activity at 10 µM (Plk1(h); [2]): 93% | remaining activity at 10 µM (PKBβ(h); [2]): 106%

Fc1ccc(CCNc2ncnc3ccc(F)cc23)cc1 [5as, 6-Fluoro-N-[2-(4-Fluorophenyl)Ethyl]-4-Quinazolinamine]
remaining activity at 10 µM (MOK(h); [3]): 86% | remaining activity at 10 µM (IR(h); [3]): 88% | remaining activity at 10 µM (Fer(h); [3]): 98% | remaining activity at 10 µM (cKit(D816H)(h); [3]): 95% | remaining activity at 10 µM (Hck(h) activated; [3]): 85% | remaining activity at 10 µM (mTOR/FKBP12(h); [3]): 89% | remaining activity at 10 µM (TAK1(h); [3]): 83% | remaining activity at 10 µM (IRAK1(h); [3]): 87% | remaining activity at 10 µM (CLK3(h); [3]): 117% | remaining activity at 10 µM [1, 3]: 93% | remaining activity at 10 µM (Plk1(h); [3]): 96% | remaining activity at 10 µM (PKBβ(h); [3]): 84%

Fc1ccc2ncnc(NCCc3ccc(Cl)cc3)c2c1 [5at, N-[2-(4-Chlorophenyl)Ethyl]-6-Fluoro-4-Quinazolinamine]
remaining activity at 10 µM (MOK(h); [4]): 100% | remaining activity at 10 µM (IR(h); [4]): 70% | remaining activity at 10 µM (Fer(h); [4]): 94% | remaining activity at 10 µM (cKit(D816H)(h); [4]): 95% | remaining activity at 10 µM (Hck(h) activated; [4]): 108% | remaining activity at 10 µM (mTOR/FKBP12(h); [4]): 94% | remaining activity at 10 µM (TAK1(h); [4]): 82% | remaining activity at 10 µM (IRAK1(h); [4]): 106% | remaining activity at 10 µM (CLK3(h); [4]): 116% | remaining activity at 10 µM [1, 4]: 91% | remaining activity at 10 µM (Plk1(h); [4]): 92% | remaining activity at 10 µM (PKBβ(h); [4]): 75%

COc1ccc2ncnc(Nc3cccc(F)c3)c2c1 [5ay, N-(3-Fluorophenyl)-6-Methoxy-4-Quinazolinamine]
remaining activity at 10 µM (MOK(h); [5]): 65% | remaining activity at 10 µM (IR(h); [5]): 98% | remaining activity at 10 µM (Fer(h); [5]): 80% | remaining activity at 10 µM (cKit(D816H)(h); [5]): 89% | remaining activity at 10 µM (Hck(h) activated; [5]): 46% | remaining activity at 10 µM (mTOR/FKBP12(h); [5]): 88% | remaining activity at 10 µM (TAK1(h); [5]): 74% | remaining activity at 10 µM (IRAK1(h); [5]): 87% | remaining activity at 10 µM (CLK3(h); [5]): 114% | remaining activity at 10 µM [1, 5]: 81% | remaining activity at 10 µM (Plk1(h); [5]): 96% | remaining activity at 10 µM (PKBβ(h); [5]): 106%
